Values of other authors as cited in patent US20040248214A1, “Novel method of assaying immune activity” (priority 2001, published 2004).

What was measured:
NKT cells = settings: cancer-bearing mouse

Row | Molecule | activation of NKT cells (NKT cells) | disappearance of cancer (NKT cells) | metastasis (NKT cells) | side effect (IL-12 per se directly administered into living body) | anti-cancer effect (in vivo)
1 | CCCCCCCCCCCCCCCCCCCCCCCCCC(=O)N[C@@H](CO[C@H]1O[C@H](CO)[C@H](O)[C@H](O)[C@H]1O)[C@H](O)[C@H](O)CCCCCCCCCCCCCC [α-galactosylceramide] | NKT cells were activated | disappearance of cancer was not noted | metastasis was suppressed |  | 
2 | IL-12: interleukin 12 |  |  |  | results in a side effect | has an anti-cancer effect
